Data from patent US10125100B2, “Kinase inhibitors” (Respivert Limited, priority 2014, dated 2018).
Where two headings read alike, the source gives them in different places.

Assays:
[1] = target: B-Raf (Homo sapiens (Human), UniProt P15056); assay: KINOMEscan binding of kinase to standard ligand; conditions: KINOMEscan technology
Source text: (§1) These assays may be conducted by DiscoverX (formerly Ambit; San Diego, Calif.).

[2] = target: B-Raf (V600E) (Homo sapiens (Human), UniProt P15056, V600E); assay: KINOMEscan binding of kinase to standard ligand; conditions: KINOMEscan technology
Source text: as §1

[3] = target: p38 MAPKα (MAPK14) (Homo sapiens (Human), UniProt Q16539); assay: p38 MAPKα enzyme inhibition (Method 2), Z-LYTE FRET; format: biochemical
Outline: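 Enzyme (200 ng/mL solution) was preincubated 2 h at RT with compound solutions of 1, 0.1, 0.01 or 0.001 μg/mL, and inhibition was read indirectly via MAPKAP-K2 activation/phosphorylation. After a 1 h RT reaction and 1 h protease development, phosphorylation was derived from the coumarin/fluorescein emission ratio.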

[4] = Pharmacokinetics and total colon distribution after oral administration; format: in vivo; conditions: male, C57BL/6, mouse, mice, Ex. 36 measured after oral 5 mg/kg of Ex. 47 (Na salt)
Description: Studies were conducted by Sai Life Sciences (Hinjewadi, Pune, India) to investigate the systemic pharmacokinetics and total colon tissue distribution of compounds of the invention. In particular, pharmacokinetic studies were carried out in male C57BL/6 mice following a single oral administration of the compound.

[5] = target: Syk (Homo sapiens (Human), UniProt P43405); assay: Syk enzyme inhibition, Z-LYTE FRET; format: biochemical
Outline: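 Syk or c-Src enzyme (3000 or 2000 ng/mL solutions) was preincubated 2 h at RT with compound solutions at 1, 0.1, 0.01 or 0.001 µg/mL. Z-LYTE FRET peptide (8 µM solution) and ATP (800 µM solution for c-Src, 60 µM for Syk) were then added for 1 h, followed by protease development for 1 h. Phosphorylation was read as the coumarin/fluorescein emission ratio.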

[6] = test system: non-mutant kinases; assay: KinomeScan selectivity scores; format: binding; conditions: for number of individual kinase hits S(1): % Ctrl <1; for number of individual kinase hits S(10): % Ctrl <10; for number of individual kinase hits S(35): % Ctrl <35; for KinomeScan Selectivity Score S(1): non-mutant kinases with % Ctrl <1 / kinases tested; for KinomeScan Selectivity Score S(10): non-mutant kinases with % Ctrl <10 / kinases tested; for KinomeScan Selectivity Score S(35): non-mutant kinases with % Ctrl <35 / kinases tested
Source text: as §1

[7] = test system: Jurkat cells; assay: (r) Cell cytotoxicity assay; format: cell-based, human; conditions: 24 hours
Outline: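 Jurkat cells (1×10^5/well, RPMI + 10% FBS) exposed to compound at 20, 5 or 1 μg/mL final (1.0% DMSO control) for 24 h at 37° C., 5% CO2. Then stained with 7.5 μg/mL propidium iodide for 15 min. % viability = PI-negative cells by flow cytometry, normalized to DMSO.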

[8] = target: c-Src (Homo sapiens (Human), UniProt P12931); assay: c-Src enzyme inhibition, Z-LYTE FRET; format: biochemical
Outline: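 Human Syk and c-Src (enzyme at 2000 or 3000 ng/mL respectively, pre-dilution) preincubated 2 hr at RT with compound at 1, 0.1, 0.01 or 0.001 μg/mL; FRET peptide added with ATP (60 μM Syk, 800 μM c-Src; solution concentrations), 1 hr. Protease development 1 hr; phosphorylation from coumarin/fluorescein emission ratio.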

[9] = total colon, read-out: total colon level
[10] = whole blood, read-out: Mean blood concentration

Sequence of B-Raf (P15056 whole entry): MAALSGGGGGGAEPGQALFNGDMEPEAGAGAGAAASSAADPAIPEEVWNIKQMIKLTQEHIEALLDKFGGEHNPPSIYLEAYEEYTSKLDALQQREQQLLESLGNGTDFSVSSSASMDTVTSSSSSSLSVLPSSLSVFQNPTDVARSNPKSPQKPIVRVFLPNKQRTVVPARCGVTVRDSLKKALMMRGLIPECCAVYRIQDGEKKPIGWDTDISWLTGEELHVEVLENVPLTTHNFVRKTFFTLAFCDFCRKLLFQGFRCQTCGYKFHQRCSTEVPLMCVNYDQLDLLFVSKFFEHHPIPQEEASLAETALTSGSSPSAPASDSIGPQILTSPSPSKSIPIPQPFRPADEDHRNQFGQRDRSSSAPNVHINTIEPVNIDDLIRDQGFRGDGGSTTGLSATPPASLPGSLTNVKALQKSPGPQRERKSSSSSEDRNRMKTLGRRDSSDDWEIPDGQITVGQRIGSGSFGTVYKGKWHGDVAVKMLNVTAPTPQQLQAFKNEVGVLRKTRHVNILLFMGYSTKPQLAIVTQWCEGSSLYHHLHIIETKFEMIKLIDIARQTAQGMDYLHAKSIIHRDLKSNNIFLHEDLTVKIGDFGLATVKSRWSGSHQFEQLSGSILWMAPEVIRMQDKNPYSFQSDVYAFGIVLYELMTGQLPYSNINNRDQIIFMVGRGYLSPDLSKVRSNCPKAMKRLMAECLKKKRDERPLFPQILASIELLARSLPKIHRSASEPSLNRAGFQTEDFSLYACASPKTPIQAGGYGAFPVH
Sequence of B-Raf (V600E) (P15056 whole entry V600E): as the sequence (P15056 whole entry) above, with V600E counted along it
Sequence of c-Src (P12931 whole entry, looked up): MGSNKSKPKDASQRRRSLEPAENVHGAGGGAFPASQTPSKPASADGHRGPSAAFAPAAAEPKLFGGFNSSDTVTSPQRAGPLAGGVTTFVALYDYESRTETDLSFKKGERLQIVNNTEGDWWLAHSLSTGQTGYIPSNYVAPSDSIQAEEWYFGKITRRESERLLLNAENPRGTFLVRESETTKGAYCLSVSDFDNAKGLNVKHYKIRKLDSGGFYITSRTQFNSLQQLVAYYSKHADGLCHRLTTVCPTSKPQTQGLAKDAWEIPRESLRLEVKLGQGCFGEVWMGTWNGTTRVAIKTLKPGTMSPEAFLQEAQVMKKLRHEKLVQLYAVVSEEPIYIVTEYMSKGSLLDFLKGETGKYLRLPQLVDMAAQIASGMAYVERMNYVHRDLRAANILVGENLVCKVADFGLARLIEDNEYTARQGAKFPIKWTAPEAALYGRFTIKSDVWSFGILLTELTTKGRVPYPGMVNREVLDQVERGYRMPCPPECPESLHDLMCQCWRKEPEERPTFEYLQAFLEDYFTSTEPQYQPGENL
Sequence of p38 MAPKα (MAPK14) (Q16539 whole entry): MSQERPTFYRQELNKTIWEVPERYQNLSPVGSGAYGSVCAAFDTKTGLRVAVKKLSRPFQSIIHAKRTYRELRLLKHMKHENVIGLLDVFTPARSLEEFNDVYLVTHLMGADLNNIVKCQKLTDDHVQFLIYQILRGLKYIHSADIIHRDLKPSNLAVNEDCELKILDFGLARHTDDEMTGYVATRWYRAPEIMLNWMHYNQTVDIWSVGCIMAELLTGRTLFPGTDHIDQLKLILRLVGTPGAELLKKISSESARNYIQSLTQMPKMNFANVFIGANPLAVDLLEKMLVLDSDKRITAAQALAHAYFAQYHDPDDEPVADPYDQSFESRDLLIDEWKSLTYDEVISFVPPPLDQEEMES

## COc1cc(Nc2cc(Oc3ccc(NC(=O)Nc4cc(C(C)(C)C)cc(NS(C)(=O)=O)c4OC)c4ccccc34)ccn2)cc(OC)c1C(=O)NCCOCCOCCO [Example 36, 4-((4-((4-(3-(5-(tert-butyl)-2-methoxy-3-(methylsulfonamido)phenyl)ureido)naphthalen-1-yl)oxy)pyridin-2-yl)amino)-N-(2-(2-(2-hydroxyethoxy)ethoxy)ethyl)-2,6-dimethoxybenzamide]
[1]
  effect on the binding of B-Raf to its standard ligand: did not have any significant effect
[2]
  effect on the binding of B-Raf (V600E) to its standard ligand: did not have any significant effect
[3]
  IC50: 19 nM
[4]; [9]
  concentration at 0.5 h: 37.8 ng/g
  concentration at 1 h: 95.1 ng/g
  concentration at 2 h: 643 ng/g
  concentration at 4 h: 798 ng/g
  concentration at 6 h: 380 ng/g
  concentration at 8 h: 1070 ng/g
  concentration at 12 h: 139 ng/g
  concentration at 24 h: 0 ng/g
[4]; [10]
  concentration at 0.5 h: 0 ng/mL
  concentration at 1 h: 0 ng/mL
  concentration at 2 h: 0 ng/mL
  concentration at 4 h: 0 ng/mL
  concentration at 6 h: 0 ng/mL
  concentration at 8 h: 0 ng/mL
  concentration at 12 h: 0 ng/mL
  concentration at 24 h: 0 ng/mL
[5]
  IC50: 190 nM
[6]; 50 nM
  number of individual kinase hits S(1): 1
  number of individual kinase hits S(10): 20
  number of individual kinase hits S(35): 60
  KinomeScan Selectivity Score S(1): 0.002
  KinomeScan Selectivity Score S(10): 0.050
  KinomeScan Selectivity Score S(35): 0.149
[6]; 500 nM
  number of individual kinase hits S(1): 32
  number of individual kinase hits S(10): 83
  number of individual kinase hits S(35): 120
  KinomeScan Selectivity Score S(1): 0.079
  KinomeScan Selectivity Score S(10): 0.206
  KinomeScan Selectivity Score S(35): 0.298
[7]; 1 μg/mL
  % Viability at 1 μg/mL: 93.3%
[7]; 5 μg/mL
  % Viability at 5 μg/mL: 89.3%
[7]; 20 μg/mL
  % Viability at 20 μg/mL: 84.9%
[8]
  IC50: 10 nM
